These are literature values, as cited in patent US11602507B2, “Extended release oral composition of memantine or its salt and its process for the preparation” (TRIKONA PHARMACEUTICALS PVT. LTD, priority 2019, dated 2023).

Consider `CC12CC3CC(C)(C1)CC(N)(C3)C2` [Memantine, 1-amino-3,5-dimethyladamantane], for which the solubility in water entry was “highly soluble in water”.
